Results: PubChem BioAssay AID2060887 (Molecular Pharmacology Branch, DTP, NCI, 2025)
Each block holds one compound with its values, some of them ahead of it.

System: 782815-120-R-J1-PDC complex spheroid viability
Assay: Anticancer human tumor 782815-120-R-J1-PDC patient-derived colon adenocarcinoma cell line growth inhibition [RAS]
Conditions: for IC50: curve of first compound; for viability, T/C: stronger effect = lower value
How it was run: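 Multi-cell-type spheroids: tumor cells plus HUVEC endothelial cells and mesenchymal stem cells. RAS-pathway inhibitors were combined with targeted agents, each dosed in half-log steps down from clinical Cmax, or from 10 microM when Cmax was unknown.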

[1] = second compound 0.00316 µM, first compound 0.0316 µM
[2] = second compound 0.00316 µM, first compound 0.1 µM
[3] = second compound 0.00316 µM, first compound 0.316 µM
[4] = second compound 0.00316 µM, first compound 1 µM
[5] = second compound 0.01 µM, first compound 0.0316 µM
[6] = second compound 0.01 µM, first compound 0.1 µM
[7] = second compound 0.01 µM, first compound 0.316 µM
[8] = second compound 0.01 µM, first compound 1 µM
[9] = second compound 0.0316 µM, first compound 0.0316 µM
[10] = second compound 0.0316 µM, first compound 0.1 µM
[11] = second compound 0.0316 µM, first compound 0.316 µM
[12] = second compound 0.0316 µM, first compound 1 µM
[13] = second compound 0.1 µM, first compound 0.0316 µM
[14] = second compound 0.1 µM, first compound 0.1 µM
[15] = second compound 0.1 µM, first compound 0.316 µM
[16] = second compound 0.1 µM, first compound 1 µM
[17] = second compound 0.316 µM, first compound 0.0316 µM
[18] = second compound 0.316 µM, first compound 0.1 µM
[19] = second compound 0.316 µM, first compound 0.316 µM
[20] = second compound 0.316 µM, first compound 1 µM
[21] = second compound 1 µM, first compound 0.0316 µM
[22] = second compound 1 µM, first compound 0.1 µM
[23] = second compound 1 µM, first compound 0.316 µM
[24] = second compound 1 µM, first compound 1 µM
[25] = second compound 0.0316 µM, first compound 3.16 µM
[26] = second compound 0.0316 µM, first compound 10 µM
[27] = second compound 0.1 µM, first compound 3.16 µM
[28] = second compound 0.1 µM, first compound 10 µM
[29] = second compound 0.316 µM, first compound 3.16 µM
[30] = second compound 0.316 µM, first compound 10 µM
[31] = second compound 1 µM, first compound 3.16 µM
[32] = second compound 1 µM, first compound 10 µM
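Note: spheroids exposed to compounds for 7 days before reading.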
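Throughout, for viability, T/C: 100% = DMSO vehicle control viability.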

IC50 (second compound 0.00316 µM): > 1 µM
IC50 (second compound 0.01 µM): > 1 µM
IC50 (second compound 0.0316 µM): > 1 µM
IC50 (second compound 0.1 µM): > 1 µM
IC50 (second compound 0.316 µM): > 1 µM
IC50 (second compound 1 µM): > 1 µM
Structure (SMILES): C=CC(=O)Nc1cc(Nc2nccc(-c3cn(C)c4ccccc34)n2)c(OC)cc1N(C)CCN(C)C + C=CC(=O)N1CCN(c2nc(OCC3CCCN3C)nc3c(F)c(-c4nc(N)cc(C)c4C(F)(F)F)c(Cl)cc23)C(C)C1
viability, T/C (second compound 0.00316 µM, first compound 0.00316 µM): 92.7%
viability, T/C (second compound 0.00316 µM, first compound 0.01 µM): 98.3%
viability, T/C [1]: 101%
viability, T/C [2]: 95%
viability, T/C [3]: 92.9%
viability, T/C [4]: 99.8%
viability, T/C (second compound 0.01 µM, first compound 0.00316 µM): 91.9%
viability, T/C (second compound 0.01 µM, first compound 0.01 µM): 92%
viability, T/C [5]: 91.8%
viability, T/C [6]: 91.6%
viability, T/C [7]: 93.8%
viability, T/C [8]: 91%
viability, T/C (second compound 0.0316 µM, first compound 0.00316 µM): 98.3%
viability, T/C (second compound 0.0316 µM, first compound 0.01 µM): 101%
viability, T/C [9]: 98.1%
viability, T/C [10]: 92.1%
viability, T/C [11]: 92.9%
viability, T/C [12]: 88.5%
viability, T/C (second compound 0.1 µM, first compound 0.00316 µM): 100%
viability, T/C (second compound 0.1 µM, first compound 0.01 µM): 88.6%
viability, T/C [13]: 96%
viability, T/C [14]: 92.9%
viability, T/C [15]: 109%
viability, T/C [16]: 90.7%
viability, T/C (second compound 0.316 µM, first compound 0.00316 µM): 101%
viability, T/C (second compound 0.316 µM, first compound 0.01 µM): 95.1%
viability, T/C [17]: 92.3%
viability, T/C [18]: 95.6%
viability, T/C [19]: 93.9%
viability, T/C [20]: 91.6%
viability, T/C (second compound 1 µM, first compound 0.00316 µM): 96.6%
viability, T/C (second compound 1 µM, first compound 0.01 µM): 90.1%
viability, T/C [21]: 90.3%
viability, T/C [22]: 96%
viability, T/C [23]: 93.4%
viability, T/C [24]: 91.7%

IC50 (second compound 0.00316 µM): 2.28 µM
IC50 (second compound 0.01 µM): 2.32 µM
IC50 (second compound 0.0316 µM): 2.45 µM
IC50 (second compound 0.1 µM): 2.16 µM
IC50 (second compound 0.316 µM): 2.54 µM
IC50 (second compound 1 µM): 2.28 µM
Structure (SMILES): CCC(CC)c1cc(NC2CCC(N)C2)n2nccc2n1 (stereo unspecified) + C=CC(=O)N1CCN(c2nc(OCC3CCCN3C)nc3c(F)c(-c4nc(N)cc(C)c4C(F)(F)F)c(Cl)cc23)C(C)C1
viability, T/C [1]: 108%
viability, T/C [2]: 111%
viability, T/C [3]: 106%
viability, T/C [4]: 98.3%
viability, T/C (second compound 0.00316 µM, first compound 3.16 µM): 31%
viability, T/C (second compound 0.00316 µM, first compound 10 µM): 1.4%
viability, T/C [5]: 105%
viability, T/C [6]: 107%
viability, T/C [7]: 108%
viability, T/C [8]: 104%
viability, T/C (second compound 0.01 µM, first compound 3.16 µM): 30.4%
viability, T/C (second compound 0.01 µM, first compound 10 µM): 1.14%
viability, T/C [9]: 101%
viability, T/C [10]: 103%
viability, T/C [11]: 95.8%
viability, T/C [12]: 115%
viability, T/C [25]: 34.6%
viability, T/C [26]: 1.3%
viability, T/C [13]: 102%
viability, T/C [14]: 98.2%
viability, T/C [15]: 104%
viability, T/C [16]: 98.4%
viability, T/C [27]: 26.2%
viability, T/C [28]: 1.7%
viability, T/C [17]: 103%
viability, T/C [18]: 101%
viability, T/C [19]: 95.5%
viability, T/C [20]: 106%
viability, T/C [29]: 37.9%
viability, T/C [30]: 1.49%
viability, T/C [21]: 98%
viability, T/C [22]: 104%
viability, T/C [23]: 103%
viability, T/C [24]: 100%
viability, T/C [31]: 29.9%
viability, T/C [32]: 2.19%

IC50 (second compound 0.0316 µM): > 10 µM
IC50 (second compound 0.1 µM): > 10 µM
IC50 (second compound 0.316 µM): > 10 µM
IC50 (second compound 1 µM): > 10 µM
IC50 (second compound 3.16 µM): > 10 µM
IC50 (second compound 10 µM): > 10 µM
Structure (SMILES): CC(C)NCC(C(=O)N1CCN(c2ncnc3c2C(C)CC3O)CC1)c1ccc(Cl)cc1 (stereo unspecified) + C#Cc1c(F)ccc2cc(O)cc(-c3ncc4c(N5CC6CCC(C5)N6)nc(OCC56CCCN5CC(F)C6)nc4c3F)c12
viability, T/C [9]: 95.9%
viability, T/C [10]: 106%
viability, T/C [11]: 95.6%
viability, T/C [12]: 103%
viability, T/C [25]: 96.3%
viability, T/C [26]: 94.3%
viability, T/C [13]: 95.5%
viability, T/C [14]: 104%
viability, T/C [15]: 101%
viability, T/C [16]: 98.1%
viability, T/C [27]: 100%
viability, T/C [28]: 97%
viability, T/C [17]: 109%
viability, T/C [18]: 108%
viability, T/C [19]: 93.5%
viability, T/C [20]: 103%
viability, T/C [29]: 96.3%
viability, T/C [30]: 105%
viability, T/C [21]: 108%
viability, T/C [22]: 113%
viability, T/C [23]: 90.7%
viability, T/C [24]: 94.6%
viability, T/C [31]: 103%
viability, T/C [32]: 103%
viability, T/C (second compound 3.16 µM, first compound 0.0316 µM): 104%
viability, T/C (second compound 3.16 µM, first compound 0.1 µM): 101%
viability, T/C (second compound 3.16 µM, first compound 0.316 µM): 93.1%
viability, T/C (second compound 3.16 µM, first compound 1 µM): 100%
viability, T/C (second compound 3.16 µM, first compound 3.16 µM): 98.3%
viability, T/C (second compound 3.16 µM, first compound 10 µM): 102%
viability, T/C (second compound 10 µM, first compound 0.0316 µM): 103%
viability, T/C (second compound 10 µM, first compound 0.1 µM): 108%
viability, T/C (second compound 10 µM, first compound 0.316 µM): 93.4%
viability, T/C (second compound 10 µM, first compound 1 µM): 101%
viability, T/C (second compound 10 µM, first compound 3.16 µM): 96.5%
viability, T/C (second compound 10 µM, first compound 10 µM): 98.4%
